Results reported in patent publication US12297241B2, “Method to engineer transplantable human tissues” (The Regents of the University of California, priority 2018, dated 2025).

Columns and labels:
[1] = system: miR-124-HSV-tk teratomas (H1 ESC line); test: In vivo enrichment of miR-124-HSV-tk teratomas with intratumoral GCV, scRNA-seq; set-up: species or system Rag2−/−;γc−/− immunodeficient mice
Experimental: (§1) FIGS. 1A-1F: Molecular Sculpting of the Teratoma through miRNAs. (FIG. 1A) Schematic of miRNA-HSV-tk-GFP construct. 2A is gene encoding for a self-cleaving peptide. Upon transcription of construct it will silenced if appropriate endogenously expressed miRNA is present in the cell. (FIG. 1B) Schematic of how developing teratoma should form in the presence of Ganciclovir (GCV, 80 mg/kg/d) if cells were transduced with miRNA-HSV-tk construct. (FIG. 1C) Phase images from light microscopy showing H1 cell survival after 3 and 5 days in the presence of GCV (10 μM). H1 ESC line was either transduced with GFP control (EGIP backbone) or miR-124-HSV-tk-GFP. (FIG. 1D) Fluorescent microscopy and phase images showing HEK293T and HeLA cells transduced with either No GFP control, HSV-tk-GFP, or miR-21-HSV-tk-GFP. (FIG. 1E) Quantification of (FIG. 1D) using flow cytometry and gating based on the presence or absence of GFP. (FIG. 1F) In vivo studies of miR-124-HSV-tk-GFP teratomas in the presence of GCV administration (80 mg/kg/d) showing cell type fraction log fold-change based on different cell types with accompanying Z-scores compared to miR-124-HSV-tk-GFP teratomas in the absence of GCV.
Applicant then tested the miRNA-HSV-tk constructs in vivo with the goal to grow a teratoma that is enriched for a desired lineage. For this task the miR-124-HSV-tk construct was selected to enrich for the neural lineage. After the H1 ESC line was successfully transduced and selected for the miR-124-HSV-tk construct, cells were subcutaneously injected into Rag2^−/−;γc^−/− immunodeficient mice and allowed to form teratomas as described above. Once teratomas reached a minimum of 1 cm in diameter, intratumoral injections with GCV (80 mg/kg/d) for half to tumors began until they grew an appropriate time for extraction (˜10 weeks).
However, enrichment for foregut was also observed. To the best os Applicant's knowledge, there is no known published literature on miR-124 having a role in foregut development.

H1 ESC line = test: HSV-tk suicide gene killing test with GCV in transduced H1 ESC line; format: cell-based, human; conditions: GCV 10 μM, 5 days
Experimental: as §1, with “(FIG. 1F) In vivo studies of miR-124-HSV-tk-GFP teratomas in the presence of GCV administration (80 mg/kg/d) showing cell type fraction log fold-change based on different cell types with accompanying Z-scores compared to miR-124-HSV-tk-GFP teratomas in the absence of GCV.” left out
miRNA-HSV-tk constructs were tested in vitro in the H1 ESC line. The functionality of the suicide gene HSV-tk was assessed in the presence of GCV. […] Furthermore, the unique miRNA specificity of the constructs was assessed based on cell type. […]

[2] = intratumoral GCV 80 mg/kg/d vs tumor without GCV

## Nc1nc(O)c2ncn(COC(CO)CO)c2n1 [GCV, ganciclovir]
[1]; intratumoral GCV 80 mg/kg/d until extraction (~10 weeks) vs tumor without GCV
  tumor size: smaller size
[1]; [2]
  cell types depleted (scRNA-seq): muscle, retinal pigmented epithelium, and many other cell types
  cell-type fraction enriched (scRNA-seq): early neurons, neuronal progenitors, Schwann cells, and foregut
  external heterogeneity of tumor: less heterogeneous
H1 ESC line; H1 cells transduced with GFP control (EGIP backbone alone)
  cell survival in the presence of GCV: unaffected
H1 ESC line; H1 cells transduced with the miRNA-HSV-tk construct
  cell survival in the presence of GCV: total cell death
